This passage reports relative viability results from the supplement of paper PMC10307832.

Common to all, as to assay: relative viability (nuclei count vs DMSO), 5 days (fraction); higher = more cells survive
Compound in the assay “AZD1208 + AZD7762”: N[C@@H]1CCCN(c2c(/C=C3\SC(=O)NC3=O)cccc2-c2ccccc2)C1 [AZD1208] + NC(=O)Nc1cc(-c2cccc(F)c2)sc1C(=O)N[C@H]1CCCNC1 [AZD7762] (partner 0.2 µM)
In short, it runs like this:
(§1)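 A single step with final 0.05% Triton X-100, 1% formaldehyde and 1 ug/ml Hoechst fixed the cells and stained nuclei 5 days after treatment. Lung cancer cell lines in 1536-well plates had been treated by pin tool the day after seeding with one drug alone or a fixed anchor-drug dose plus five library-drug doses (not always all listed) in √10 steps, and nuclei were counted on 4× images. Relative viability is the ratio of nuclei in treated wells to nuclei in vehicle wells, taken as the median of duplicate plates.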

Compound in the assay “AZD1208 + Dasatinib”: N[C@@H]1CCCN(c2c(/C=C3\SC(=O)NC3=O)cccc2-c2ccccc2)C1 [AZD1208] + Cc1nc(Nc2ncc(C(=O)Nc3c(C)cccc3Cl)s2)cc(N2CCN(CCO)CC2)n1 [Dasatinib] (partner 0.075 µM)
Put shortly: as §1

Compound in the assay “AZD1208 + Luminespib”: N[C@@H]1CCCN(c2c(/C=C3\SC(=O)NC3=O)cccc2-c2ccccc2)C1 [AZD1208] + CCNC(=O)c1noc(-c2cc(C(C)C)c(O)cc2O)c1-c1ccc(CN2CCOCC2)cc1 [Luminespib] (partner 0.01 µM)
Put shortly: as §1

Compound in the assay “AZD1208 + Navitoclax”: N[C@@H]1CCCN(c2c(/C=C3\SC(=O)NC3=O)cccc2-c2ccccc2)C1 [AZD1208] + CC1(C)CCC(c2ccc(Cl)cc2)=C(CN2CCN(c3ccc(C(=O)NS(=O)(=O)c4ccc(N[C@H](CCN5CCOCC5)CSc5ccccc5)c(S(=O)(=O)C(F)(F)F)c4)cc3)CC2)C1 [Navitoclax] (partner 0.5 µM)
In short, it runs like this: as §1

In the case of NCI-H2405, the relative viability came to 0.676 with AZD1208 + AZD7762 (first compound 0.08 µM); 0.636 in the assay with AZD1208 + AZD7762 (first compound 0.253 µM); 0.699 in the assay with AZD1208 + AZD7762 (first compound 0.8 µM); 0.705 in the assay with AZD1208 + AZD7762 (first compound 2.53 µM); 0.629 with AZD1208 + AZD7762 (first compound 8 µM); 0.205 with AZD1208 + Dasatinib (first compound 0.08 µM). In addition, the relative viability was determined as 0.198 in the assay with AZD1208 + Dasatinib (first compound 0.253 µM); 0.202 in the assay with AZD1208 + Dasatinib (first compound 0.8 µM); 0.21 with AZD1208 + Dasatinib (first compound 2.53 µM); 0.184 with AZD1208 + Dasatinib (first compound 8 µM); 0.652 with AZD1208 + Luminespib (first compound 0.08 µM); 0.464 with AZD1208 + Luminespib (first compound 0.253 µM). For the same cell line, the relative viability with AZD1208 + Luminespib (first compound 0.8 µM) was 0.47; with AZD1208 + Luminespib (first compound 2.53 µM) it was 0.455; with AZD1208 + Luminespib (first compound 8 µM), 0.517; in the assay with AZD1208 + Navitoclax (first compound 0.08 µM) it was 0.78; with AZD1208 + Navitoclax (first compound 0.253 µM), 0.792; with AZD1208 + Navitoclax (first compound 0.8 µM), 0.84. The relative viability was 0.791 with AZD1208 + Navitoclax (first compound 2.53 µM) and 0.789 in the assay with AZD1208 + Navitoclax (first compound 8 µM).
As for NCI-H3122, the relative viability with AZD1208 + AZD7762 (first compound 0.08 µM) came to 1.07; with AZD1208 + AZD7762 (first compound 0.253 µM) it was 1.04; in the assay with AZD1208 + AZD7762 (first compound 0.8 µM), 0.952; in the assay with AZD1208 + AZD7762 (first compound 2.53 µM), 1.08; in the assay with AZD1208 + AZD7762 (first compound 8 µM) it was 0.894; with AZD1208 + Dasatinib (first compound 0.08 µM) it was 0.833. The relative viability was 0.75 in the assay with AZD1208 + Dasatinib (first compound 0.253 µM); 0.642 in the assay with AZD1208 + Dasatinib (first compound 0.8 µM); 0.618 in the assay with AZD1208 + Dasatinib (first compound 2.53 µM); 0.0921 with AZD1208 + Dasatinib (first compound 8 µM); 0.0933 with AZD1208 + Luminespib (first compound 0.08 µM); 0.129 in the assay with AZD1208 + Luminespib (first compound 0.253 µM). Further, the relative viability was 0.0763 with AZD1208 + Luminespib (first compound 0.8 µM); 0.0991 with AZD1208 + Luminespib (first compound 2.53 µM); 0.0841 with AZD1208 + Luminespib (first compound 8 µM); 1.04 with AZD1208 + Navitoclax (first compound 0.08 µM); 1 with AZD1208 + Navitoclax (first compound 0.253 µM); 0.995 in the assay with AZD1208 + Navitoclax (first compound 0.8 µM). The relative viability with AZD1208 + Navitoclax (first compound 2.53 µM) came to 1.05; with AZD1208 + Navitoclax (first compound 8 µM) it was 1.08.
Turning to PC-3 [JPC-3], the relative viability with AZD1208 + AZD7762 (first compound 0.08 µM) stood at 1.03; in the assay with AZD1208 + AZD7762 (first compound 0.253 µM) it was 0.89; in the assay with AZD1208 + AZD7762 (first compound 0.8 µM), 0.692; with AZD1208 + AZD7762 (first compound 2.53 µM), 0.793; with AZD1208 + AZD7762 (first compound 8 µM), 0.823; with AZD1208 + Dasatinib (first compound 0.08 µM), 1.13. Further, the relative viability with AZD1208 + Dasatinib (first compound 0.253 µM) amounted to 1.11; with AZD1208 + Dasatinib (first compound 0.8 µM) it was 1.01; with AZD1208 + Dasatinib (first compound 2.53 µM), 1.05; with AZD1208 + Dasatinib (first compound 8 µM) it was 0.957; in the assay with AZD1208 + Luminespib (first compound 0.08 µM), 0.668; with AZD1208 + Luminespib (first compound 0.253 µM) it was 0.7. Further, the relative viability in the assay with AZD1208 + Luminespib (first compound 0.8 µM) stood at 0.706; in the assay with AZD1208 + Luminespib (first compound 2.53 µM), 0.693; with AZD1208 + Luminespib (first compound 8 µM) it was 0.588; with AZD1208 + Navitoclax (first compound 0.08 µM) it was 0.859; with AZD1208 + Navitoclax (first compound 0.253 µM), 0.953; with AZD1208 + Navitoclax (first compound 0.8 µM), 0.792. Also, the relative viability is 0.809 in the assay with AZD1208 + Navitoclax (first compound 2.53 µM) and 0.828 with AZD1208 + Navitoclax (first compound 8 µM).
PC-14: the relative viability in the assay with AZD1208 + AZD7762 (first compound 0.08 µM) came out at 0.404; in the assay with AZD1208 + AZD7762 (first compound 0.253 µM) it was 0.429; with AZD1208 + AZD7762 (first compound 0.8 µM), 0.366; in the assay with AZD1208 + AZD7762 (first compound 2.53 µM), 0.324; with AZD1208 + AZD7762 (first compound 8 µM), 0.414; with AZD1208 + Dasatinib (first compound 0.08 µM) it was 0.268. Moreover, the relative viability with AZD1208 + Dasatinib (first compound 0.253 µM) is 0.257; in the assay with AZD1208 + Dasatinib (first compound 0.8 µM) it was 0.201; with AZD1208 + Dasatinib (first compound 2.53 µM), 0.198; with AZD1208 + Dasatinib (first compound 8 µM) it was 0.169; in the assay with AZD1208 + Luminespib (first compound 0.08 µM), 0.142; in the assay with AZD1208 + Luminespib (first compound 0.253 µM), 0.151. The relative viability with AZD1208 + Luminespib (first compound 0.8 µM) is 0.139; with AZD1208 + Luminespib (first compound 2.53 µM), 0.163; with AZD1208 + Luminespib (first compound 8 µM), 0.181; with AZD1208 + Navitoclax (first compound 0.08 µM), 1.02; with AZD1208 + Navitoclax (first compound 0.253 µM) it was 0.988; with AZD1208 + Navitoclax (first compound 0.8 µM) it was 1.01. Besides, the relative viability with AZD1208 + Navitoclax (first compound 2.53 µM) worked out at 1.02; with AZD1208 + Navitoclax (first compound 8 µM) it was 1.
Take RERF-LC-KJ: the relative viability with AZD1208 + AZD7762 (first compound 0.08 µM) was determined as 0.991; in the assay with AZD1208 + AZD7762 (first compound 0.253 µM), 1.08; with AZD1208 + AZD7762 (first compound 0.8 µM), 0.631; with AZD1208 + AZD7762 (first compound 2.53 µM), 0.759; with AZD1208 + AZD7762 (first compound 8 µM), 0.611; with AZD1208 + Dasatinib (first compound 0.08 µM) it was 0.685. The relative viability was 0.608 with AZD1208 + Dasatinib (first compound 0.253 µM); 0.546 with AZD1208 + Dasatinib (first compound 0.8 µM); 0.595 with AZD1208 + Dasatinib (first compound 2.53 µM); 0.483 in the assay with AZD1208 + Dasatinib (first compound 8 µM); 1.13 in the assay with AZD1208 + Luminespib (first compound 0.08 µM); 1.22 with AZD1208 + Luminespib (first compound 0.253 µM). The relative viability with AZD1208 + Luminespib (first compound 0.8 µM) worked out at 1.14; in the assay with AZD1208 + Luminespib (first compound 2.53 µM) it was 1.07; in the assay with AZD1208 + Luminespib (first compound 8 µM), 0.838; with AZD1208 + Navitoclax (first compound 0.08 µM), 1.03; in the assay with AZD1208 + Navitoclax (first compound 0.253 µM), 0.908; with AZD1208 + Navitoclax (first compound 0.8 µM) it was 0.959. The values for the relative viability in the assay with AZD1208 + Navitoclax (first compound 2.53 µM) and with AZD1208 + Navitoclax (first compound 8 µM) were 0.921 and 0.662, respectively.
